Experimental data published in patent publication US11571567B2, “Iontophoresis device for drug delivery and method for manufacturing the same” (BIOSENSOR LABORATORIES INC., priority 2016, dated 2023).

Experiment: Drug delivery effect of the RED iontophoresis device through excised hairless mouse back skin (HPLC/LC-MS of stratum corneum and dermis)
Type: in vitro ADME
Settings: after 3 hours, FIG. 10
Experimental: FIG. 10 is a graph illustrating drug delivery effects of the iontophoresis device according to an embodiment. In order to confirm the drug delivery effects, the RED battery unit was prepared in the same manner as in preparation of the RED battery unit prepared for the measurement in FIG. 6, except that the number of chamber layers was 15, and a size of the chamber was 1 cm×0.8 cm. Also, 3M clectrically conductible adhesive tape (ECAT), which is conductive fabric, was used as an intermediate unit. The first material containing unit was prepared as follows. 2.5 wt % of 2-phospho I-ascorbic acid trisodium (VCP) (available from Sigma Aldrich, US) and 3 w/v % of Carbopol 940 were dissolved in 1×PBS having pH of 7.4. By titrating with 1 M HCl and 1 M NaOH, a pH of the first material containing unit including vitamin C (VCP) was adjusted to 7. This is a stable pH at which VCP exists in the ionized form. As a thickening agent used in preparation of a dosage form, Carbopol was prepared as a sol while controlling a pH using pH indicator paper (available from GE healthcare, UK). The resultant was sufficiently stirred by using a glass rod so that a material in the first material containing unit was homogenous after each titration process. […]

O=C1O[C@H]([C@@H](O)CO)C(O)=C1OP(=O)(O)O.[Na+].[Na+].[Na+] [VCP, 2-phospho I-ascorbic acid trisodium]
drug remaining amount in the stratum corneum (control group (Ctrl): device with the same drug concentration, not activated by water, excised haireless mouse back skin): more drug remaining amount was found in the stratum corneum
vitamin C (VCP) delivered to the skin, i.e., dermis (experimental group (RED single): activated iontophoresis device, 15 chamber layers, 2.5 wt % VCP in Carbopol sol pH 7, excised haireless mouse (Sk-hr 1) back skin): about 40%
